Results reported in BindingDB's records for doi:10.1021/jm00100a018 (1992).
Counter-ions that a name gives are not always drawn.

experiment: Concentration tested in vitro to inhibit PAF-induced maximum aggregation (PAF-Antagonistic activity) by 50%.

| SMILES | IC50 [nM] |
| --- | --- |
| COc1cc(CCC(=O)N2CCN(C(=O)c3cc(OC)c(OC)c(OC)c3)CC2)cc(OC)c1OC | 73000 |
| N#CC(c1cccnc1)N1CCN(C(=O)CNC(Cc2ccccc2)c2ccccc2)CC1 (stereo unspecified) | 50 |
| N#CC(c1cccnc1)N1CCN(C(=O)CNCC(c2ccccc2)c2ccccc2)CC1 (stereo unspecified) | 220 |
| N#CC(CN1CCN(C(=O)C(c2ccccc2)c2ccccc2)CC1)c1cccnc1 (stereo unspecified) | 2300 |
| COc1cc(C(=O)N2CCN(C(=S)c3cccnc3)CC2)cc(OC)c1OC | 1300 |
| CC(c1cccnc1)N1CCN(C(=O)C(c2ccccc2)c2ccccc2)CC1 (stereo unspecified) | 1200 |
| N#CC(c1cccc([N+](=O)[O-])c1)N1CCN(C(=O)CC(c2ccccc2)c2ccccc2)CC1 (stereo unspecified) | 11000 |
| CCCCCCCC(=O)N1CCN(C(C#N)c2cccnc2)CC1 (stereo unspecified) | 920 |
| N#CC(c1cccnc1)N1CCN(CCNC(=O)C(c2ccccc2)c2ccccc2)CC1 (stereo unspecified) | 36 |
| N#CC(=C1CCN(C(=O)CC(c2ccccc2)c2ccccc2)CC1)c1cccnc1 | 26 |
| N#CC(c1cccnc1)N1CCN(C(=O)NC(c2ccccc2)c2ccccc2)CC1 (stereo unspecified) | 360 |
| O=C(CC(c1ccccc1)c1ccccc1)N1CCN(Cc2cccnc2)CC1 | 520 |
| O=C(c1cccnc1)N1CCN(C(=O)C(c2ccccc2)c2ccccc2)CC1 | 23000 |
| N#CC1(Nc2cccnc2)CCN(C(=O)CNC(c2ccccc2)c2ccccc2)CC1 | 200 |
| N#CC(c1cncs1)N1CCN(C(=O)CC(c2ccccc2)c2ccccc2)CC1 (stereo unspecified) | 21 |
| N#CC(c1cccnc1)N1CCN(C(=O)Cc2ccccc2)CC1 (stereo unspecified) | 2700 |
| COc1cc(CC(=O)N2CCN(C(C#N)c3cccnc3)CC2)cc(OC)c1OC (stereo unspecified) | 460 |
| N#CC(c1cccnc1)C1CCN(C(=O)CNC(c2ccccc2)c2ccccc2)CC1 (stereo unspecified) | 24 |
| N#Cc1cccc(C(C#N)N2CCN(C(=O)CC(c3ccccc3)c3ccccc3)CC2)c1 (stereo unspecified) | 7400 |
| N#CC(c1ccncc1)N1CCN(C(=O)CC(O)(c2ccccc2)c2ccccc2)CC1 (stereo unspecified) | 2.7 |
| CC(C)(C)C(=O)N1CCN(C(C#N)c2cccnc2)CC1 (stereo unspecified) | 5200 |
| N#CC1(Nc2cccnc2)CCN(C(=O)CC(c2ccccc2)c2ccccc2)CC1 | 15 |
| N#CC(c1cccnc1)N1CCN(C(=O)Cc2ccc3ccccc3c2)CC1 (stereo unspecified) | 720 |
| N#CC(c1cccc(C(F)(F)F)c1)N1CCN(C(=O)CC(c2ccccc2)c2ccccc2)CC1 (stereo unspecified) | 9000 |
| N#CC(c1cccnc1)N1CCN(C(=O)CCCc2ccccc2)CC1 (stereo unspecified) | 260 |
| CC(c1ccccc1)N(C)CC(=O)N1CCN(C(C#N)c2cccnc2)CC1 (stereo unspecified) | 240 |
| N#CC(c1cccnc1)N1CCN(C(=O)C(CCc2ccccc2)c2ccccc2)CC1 (stereo unspecified) | 2600 |

| SMILES | IC50 [nM] |
| --- | --- |
| N#CC(c1cccnc1)N1CCN(C(=O)Cc2cccc3ccccc23)CC1 (stereo unspecified) | 76 |
| O=C(C(c1ccccc1)c1ccccc1)N1CCN(Cc2cccnc2)CC1 | 2600 |
| N#CC(c1cccnc1)N1CCN(C(=O)C(Cc2ccccc2)c2ccccc2)CC1 (stereo unspecified) | 230 |
| O=C(C(c1ccccc1)c1ccccc1)N1CC[N+]([O-])(Cc2cccnc2)CC1 | 44000 |
| N#CC(c1cccnc1)N1CCN(C(=O)CNCCC(c2ccccc2)c2ccccc2)CC1 (stereo unspecified) | 86 |
| COc1cc(C(=O)N2CCN(C(=O)c3cc(OC)c(OC)c(OC)c3)CC2)cc(OC)c1OC | 9400 |
| N#CC(c1cccnc1)N1CCN(C(=O)C(c2ccccc2)c2ccccc2)CC1 (stereo unspecified) | 10 |
| N#CC(c1cccnc1)N1CCN(C(=O)CN(Cc2ccccc2)Cc2ccccc2)CC1 (stereo unspecified) | 32 |
| N#CC(c1cccnc1)N1CCN(C(=O)/C(=C/c2ccccc2)c2ccccc2)CC1 (stereo unspecified) | 7.5 |
| N#CC(c1cccnc1)N1CCN(CC(=O)NCCC(c2ccccc2)c2ccccc2)CC1 (stereo unspecified) | 240 |
| CN(CC(=O)N1CCN(C(C#N)c2cccnc2)CC1)C(c1ccccc1)c1ccccc1 (stereo unspecified) | 60 |
| N#CC(c1ccncc1)N1CCN(C(=O)CNC(=O)C(c2ccccc2)c2ccccc2)CC1 (stereo unspecified) | 680 |
| Cn1cccc1C(C#N)N1CCN(C(=O)CC(c2ccccc2)c2ccccc2)CC1 (stereo unspecified) | 25000 |
| CN(CC(=O)N1CCN(C(C#N)c2cccnc2)CC1)c1ccccc1 (stereo unspecified) | 2800 |
| CN(C)c1ccc(C(C#N)N2CCN(C(=O)CC(c3ccccc3)c3ccccc3)CC2)cc1 (stereo unspecified) | 210000 |
| Cn1ccc(C(C#N)N2CCN(C(=O)CC(c3ccccc3)c3ccccc3)CC2)c1 (stereo unspecified) | 2600 |
| N#CC(c1cccnc1)C1CCN(C(=O)C(c2ccccc2)c2ccccc2)CC1 (stereo unspecified) | 21 |
| N#CC(c1cccnc1)N1CCN(C(=O)CNc2ccccc2)CC1 (stereo unspecified) | 130 |
| O=C(CC(c1ccccc1)c1ccccc1)N1CCN(C(=O)c2cc[n+]([O-])cc2)CC1 | 1900 |
| NC(=O)C(c1cccnc1)N1CCN(C(=O)C(c2ccccc2)c2ccccc2)CC1 (stereo unspecified) | 200000 |
| COc1cc(C(=O)N2CCN(C(=O)c3cccnc3)CC2)cc(OC)c1OC | 5200 |
| N#CC(c1cccnc1)N1CCN(CCNC(=O)CC(c2ccccc2)c2ccccc2)CC1 (stereo unspecified) | 5500 |
| N#CC(c1cccnc1)N1CCN(CCC(c2ccccc2)c2ccccc2)CC1 (stereo unspecified) | 630 |
| CC(NCC(=O)N1CCN(C(C#N)c2cccnc2)CC1)c1ccccc1 (stereo unspecified) | 36 |
| N#CC(c1cccnc1)N1CCN(C(=O)CN(Cc2ccccc2)c2ccccc2)CC1 (stereo unspecified) | 24 |
| O=C(CC(c1ccccc1)c1ccccc1)N1CCN(C(=O)c2ccncc2)CC1 | 1900 |
| CCCCC(=O)N1CCN(C(C#N)c2cccnc2)CC1 (stereo unspecified) | 2600 |

| SMILES | IC50 [nM] |
| --- | --- |
| N#CC(c1cccc(Cl)c1)N1CCN(C(=O)CC(c2ccccc2)c2ccccc2)CC1 (stereo unspecified) | 21000 |
| N#CC(c1cccnc1)N1CCN(C(=S)C(c2ccccc2)c2ccccc2)CC1 (stereo unspecified) | 23 |
| N#CC(c1cccnc1)N1CCN(C(=O)/C=C/c2ccccc2)CC1 (stereo unspecified) | 2500 |
| Cn1cc(C(C#N)N2CCN(C(=O)CC(c3ccccc3)c3ccccc3)CC2)c2ccccc21 (stereo unspecified) | 5700 |
| CC(C#N)(c1cccnc1)N1CCN(C(=O)C(c2ccccc2)c2ccccc2)CC1 (stereo unspecified) | 240 |
| N#CC(c1ccncc1)N1CCN(CCNC(c2ccccc2)c2ccccc2)CC1 (stereo unspecified) | 36 |
| COc1cc(C(=O)N2CCN(C(C#N)c3ccccn3)CC2)cc(OC)c1OC (stereo unspecified) | 44000 |
| N#CC(c1cccnc1)N1CCN(C(=O)CNc2cccc3ccccc23)CC1 (stereo unspecified) | 2600 |
| CCCCCCCCCCCCCCCC(=O)N1CCN(C(C#N)c2cccnc2)CC1 (stereo unspecified) | > 200000 |
| N#CC(c1ccncc1)N1CCN(C(=O)CCNC(c2ccccc2)c2ccccc2)CC1 (stereo unspecified) | 55 |
| N#CC(c1cccnc1)N1CCN(C(=O)Cc2c[nH]c3ccccc23)CC1 (stereo unspecified) | 450 |
| N#CC(c1cccnc1)N1CCN(C(=O)CNCCCc2ccccc2)CC1 (stereo unspecified) | 530 |
| O=C(CC(c1ccccc1)c1ccccc1)N1CCC(Nc2cccnc2)CC1 [3,3-Diphenyl-1-[4-(pyridin-3-ylamino)-piperidin-1-yl]-propan-1-one; dihydrochloride; hydrate] | 87 |
| N#CC(c1cccnc1)N1CCC(OC(=O)CC(c2ccccc2)c2ccccc2)CC1 (stereo unspecified) [3,3-Diphenyl-propionic acid 1-(cyano-pyridin-3-yl-methyl)-piperidin-4-yl ester; dihydrochloride; hydrate] | 2600 |
| N#CC(c1cccnc1)N1CCN(C(=O)OCC(c2ccccc2)c2ccccc2)CC1 (stereo unspecified) [4-(Cyano-pyridin-3-yl-methyl)-piperazine-1-carboxylic acid 2,2-diphenyl-ethyl ester; dihydrochloride; hydrate] | 26 |
| N#CC(c1cccnc1)N1CCN(C(=O)c2ccccc2)CC1 (stereo unspecified) [(4-Benzoyl-piperazin-1-yl)-pyridin-3-yl-acetonitrile; dihydrochloride] | 4800 |
| COc1cc(C(=O)N2CCN(Cc3cccnc3)CC2)cc(OC)c1OC [(4-Pyridin-3-ylmethyl-piperazin-1-yl)-(3,4,5-trimethoxy-phenyl)-methanone; dihydrochloride; hydrate] | 17000 |
| CN(CCCc1ccccc1)CC(=O)N1CCN(C(C#N)c2cccnc2)CC1 (stereo unspecified) [(4-{2-[Methyl-(3-phenyl-propyl)-amino]-acetyl}-piperazin-1-yl)-pyridin-3-yl-acetonitrile; dihydrochloride; hydrate] | 2200 |
| COc1cc(C(=O)N2CCN(C(C#N)c3cccnc3)CC2)cc(OC)c1OC (stereo unspecified) [Pyridin-3-yl-[4-(3,4,5-trimethoxy-benzoyl)-piperazin-1-yl]-acetonitrile; dihydrochloride; hydrate] | 1900 |
| COc1cc(CCC(=O)N2CCN(C(C#N)c3cccnc3)CC2)cc(OC)c1OC (stereo unspecified) [Pyridin-3-yl-{4-[3-(3,4,5-trimethoxy-phenyl)-propionyl]-piperazin-1-yl}-acetonitrile; dihydrochloride; hydrate] | 400 |
| CC(C(=O)N1CCN(C(C#N)c2cccnc2)CC1)(c1ccccc1)c1ccccc1 (stereo unspecified) [[4-(2,2-Diphenyl-propionyl)-piperazin-1-yl]-pyridin-3-yl-acetonitrile; dihydrochloride] | 1.9 |
| N#CC(c1cccnc1)N1CCN(C(=O)C(Cc2ccccc2)Cc2ccccc2)CC1 (stereo unspecified) [[4-(2-Benzyl-3-phenyl-propionyl)-piperazin-1-yl]-pyridin-3-yl-acetonitrile; dihydrochloride; hydrate] | 11 |
| N#CC(c1cccnc1)N1CCN(C(=O)CNCc2ccccc2)CC1 (stereo unspecified) [[4-(2-Benzylamino-acetyl)-piperazin-1-yl]-pyridin-3-yl-acetonitrile; dihydrochloride; hydrate] | 240 |
| CC(C(=O)N1CCN(C(C#N)c2cccnc2)CC1)c1ccccc1 (stereo unspecified) [[4-(2-Phenyl-propionyl)-piperazin-1-yl]-pyridin-3-yl-acetonitrile; dihydrochloride] | 21 |
| N#CC(c1ccncc1)N1CCN(C(=O)CC(c2ccccc2)c2ccccc2)CC1 (stereo unspecified) [[4-(3,3-Diphenyl-propionyl)-piperazin-1-yl]-pyridin-4-yl-acetonitrile; dihydrochloride] | 51 |
| N#CC(c1cccnc1)N1CCN(C(=O)CCc2ccccc2)CC1 (stereo unspecified) [[4-(3-Phenyl-propionyl)-piperazin-1-yl]-pyridin-3-yl-acetonitrile; dihydrochloride; hydrate] | 520 |

experiment: as above; remark: another data set of the same source

| SMILES | IC50 [nM] |
| --- | --- |
| N#CC(c1cccnc1)N1CCN(C(=O)c2ccc3ccccc3c2)CC1 (stereo unspecified) [[4-(Naphthalene-2-carbonyl)-piperazin-1-yl]-pyridin-3-yl-acetonitrile; dihydrochloride] | 25000 |
